Results: US20230111310A1, “CARBOXYLIC ACID DERIVATIVE-SUBSTITUTED IMINO ARYL COMPOUND, PREPARATION METHOD THEREFOR, HERBICIDAL COMPOSITION AND USE THEREOF” (Qingdao Kingagroot Chemical Compound Co., Ltd., priority 2020, published 2023)

Tests used:
Assay type in all cases: in vivo
[1] = system: Abutilon theophrasti; test: Weeding effect in post-emergence stage; conditions: Dose 15 g/ha; level of fresh weight growth control rate
How it was run: (§1)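 Pot-grown weeds were sprayed at the 2-3 leaf stage, 2 weeks after sowing, with compound in acetone plus Tween 80 and 1.5 liter/ha methyl oleate emulsifiable concentrate, diluted in water. Doses were 500, 250, 125, 60, 30, 15, 7.5 g/ha. Growth control was scored after 3 weeks in greenhouse; mean of three replicates.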

[2] = system: Alopecurus japonicus; test: Weeding effect in post-emergence stage; conditions: Dose 15 g/ha; level of fresh weight growth control rate
How it was run: as §1

[3] = system: Digitaria sanguinalis; test: Weeding effect in post-emergence stage; conditions: Dose 15 g/ha; level of fresh weight growth control rate
How it was run: as §1

[4] = system: Eleusine indica; test: Weeding effect in post-emergence stage; conditions: for Weeding effect in post-emergence stage, Eleusine indica: Dose 15 g/ha, level of fresh weight growth control rate; for activity level (growth control rate) Eleusine indica: post-emergence, 7.5 g/ha, 3 weeks
How it was run: as §1

[5] = system: Setaria viridis; test: Weeding effect in post-emergence stage; conditions: Dose 15 g/ha; level of fresh weight growth control rate
How it was run: as §1

[6] = system: Amaranthus retroflexus; test: Weeding effect in post-emergence stage; conditions: 7.5 g/ha, 3 weeks
How it was run: as §1

[7] = system: Echinochloa crusgalli; test: Weeding effect in post-emergence stage; conditions: for Weeding effect in post-emergence stage, Echinochloa crusgalli: Dose 15 g/ha, level of fresh weight growth control rate; for activity level (growth control rate) Echinochloa crusgalli: post-emergence, 7.5 g/ha, 3 weeks
How it was run: as §1

[8] = system: Abutilon theophrasti; test: Weeding effect in pre-emergence stage; conditions: 30 g/ha, 4 weeks
How it was run: (§2)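 Test compounds were dissolved in acetone with tween 80, diluted with water and sprayed right after sowing, with seeds covered by 0.5-2 cm of soil. Rates were 500 to 7.5 g/ha. Growth control was scored against activity-level criteria after 4 weeks in the greenhouse.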

[9] = system: Amaranthus retroflexus; test: Weeding effect in pre-emergence stage; conditions: 30 g/ha, 4 weeks
How it was run: as §2

[10] = system: Capsella bursa-pastoris; test: Weeding effect in pre-emergence stage; conditions: 30 g/ha, 4 weeks
How it was run: as §2

[11] = system: Descurainia sophia; test: Weeding effect in pre-emergence stage; conditions: 30 g/ha, 4 weeks
How it was run: as §2

[12] = system: Setaria viridis; test: Weeding effect in pre-emergence stage; conditions: 30 g/ha, 4 weeks
How it was run: as §2

[13] = system: Veronica didyma Tenore; test: Weeding effect in pre-emergence stage; conditions: 30 g/ha, 4 weeks
How it was run: as §2

[14] = system: Peanut; test: Pre-emergence stage, crop selectivity; conditions: 30 g/ha, 4 weeks
How it was run: as §2

[15] = system: Soybeans; test: Pre-emergence stage, crop selectivity; conditions: 30 g/ha, 4 weeks
How it was run: as §2

[16] = system: corn; test: Pre-emergence stage, crop selectivity; conditions: 30 g/ha, 4 weeks
How it was run: as §2

[17] = system: cotton; test: Pre-emergence stage, crop selectivity; conditions: 30 g/ha, 4 weeks
How it was run: as §2

[18] = system: Leptochloa chinensis; test: Weed control effect evaluation in rice field; conditions: rice field pot, 30 g/ha, 14 days after treatment
From the text: (§3) The activity level criteria for plant damage (i.e., growth control rate) are as follows:
(§4) Rice field soil was loaded into a 1/1,000,000 ha pot. The seeds of Echinochloa crusgalli. Scirpus juncoides. Bidens tripartita L., Monochoria vaginalis, and Leptochloa chinensis were sowed and gently covered with soil, then left to stand still in greenhouse in the state of 0.5-1 cm of water storage. The tuber of Sagittaria trifolia was planted in the next day or 2 days later. It was kept at 3-4 cm of water storage thereafter. The weeds were treated by dripping the WP or SC water diluents prepared according to the common preparation method of the compounds of the present invention with pipette homogeneously to achieve specified effective amount when Echinochloa crusgalli. Scirpus juncoides, Bidens tripartita L., Monochoria vaginalis, and Leptochloa chinensis reached 0.5 leaf stage and Sagittaria trifolia reached the time point of primary leaf stage.
(§5) The fertility condition of Echinochloa crusgalli. Scirpus juncoides. Bidens tripartita L., Monochoria vaginalis, Leptochloa chinensis and Sagittaria trifolia 14 days after the treatment of the compound of the invention and the fertility condition of rice 21 days after the treatment of the compound of the invention respectively with the naked eye. Evaluate the weed control effect with the above activity standard level. Many compounds show excellent activity and selectivity.

[19] = system: Monochoria vaginalis; test: Weed control effect evaluation in rice field; conditions: rice field pot, 30 g/ha, 14 days after treatment
From the text: as §3, §4, §5

[20] = system: Scirpus juncoides; test: Weed control effect evaluation in rice field; conditions: rice field pot, 30 g/ha, 14 days after treatment
From the text: as §3, §4, §5

[21] = system: Rice; test: Transplanted rice safety evaluation; conditions: transplanted japonica rice, 30 g/ha, 21 days after treatment
Protocol: as §3
In addition, the rice field soil that loaded into the 1/1,000,000 ha pot was leveled to keep water storage at 3-4 cm depth. The 5 leaf stage rice (japonica rice) was transplanted at 3 cm of transplanting depth the next day. The compound of the present invention was treated by the same way after 5 days of transplantation.
as §5

| SMILES | Weeding effect in post-emergence stage, Abutilon theophrasti [1] | Weeding effect in post-emergence stage, Alopecurus japonicus [2] | Weeding effect in post-emergence stage, Digitaria sanguinalis [3] | Weeding effect in post-emergence stage, Eleusine indica [4] | activity level (growth control rate) Eleusine indica [4] | Weeding effect in post-emergence stage, Setaria viridis [5] | activity level (growth control rate) Amaranthus retroflexus [6] | Weeding effect in post-emergence stage, Echinochloa crusgalli [7] | activity level (growth control rate) Echinochloa crusgalli [7] | activity level (growth control rate) Abutilon theophrasti [8] | activity level (growth control rate) Amaranthus retroflexus [9] | activity level (growth control rate) Capsella bursa-pastoris [10] | activity level (growth control rate) Descurainia sophia [11] | activity level (growth control rate) Setaria viridis [12] | activity level (growth control rate) Veronica didyma Tenore [13] | plant damage level Peanut [14] | plant damage level Soybeans [15] | plant damage level Corn [16] | plant damage level Cotton [17] | activity level (weed control effect) Leptochloa chinensis [18] | also measured |
| --- | --- | --- | --- | --- | --- | --- | --- | --- | --- | --- | --- | --- | --- | --- | --- | --- | --- | --- | --- | --- | --- |
| COC(=O)[C@@H](C)O/N=C/c1cc(-n2c(=O)n(C)c(=S)n(C)c2=O)c(F)cc1Cl [1(R)] | 5 (Level 5: growth control rate is above 85%) | 5 (Level 5: growth control rate is above 85%) | 5 (Level 5: growth control rate is above 85%) | 5 (Level 5: growth control rate is above 85%) | 5 (Level 5: growth control rate is above 85%) | 5 (Level 5: growth control rate is above 85%) | 5 (Level 5: growth control rate is above 85%) | 5 (Level 5: growth control rate is above 85%) | 4 (Level 4: growth control rate is greater than or equal to 60% and less than 85%) | 5 (Level 5: growth control rate is above 85%) | 5 (Level 5: growth control rate is above 85%) | 5 (Level 5: growth control rate is above 85%) | 5 (Level 5: growth control rate is above 85%) | 5 (Level 5: growth control rate is above 85%) | 5 (Level 5: growth control rate is above 85%) | 0 (Level 0: growth control rate is less than 5%) | 0 (Level 0: growth control rate is less than 5%) | 0 (Level 0: growth control rate is less than 5%) | 0 (Level 0: growth control rate is less than 5%) | – | – |
| CCOC(=O)[C@@H](C)O/N=C/c1cc(-n2c(=O)cc(C(F)(F)F)n(C)c2=O)c(F)cc1Cl [196(R)] | 5 (Level 5: growth control rate is above 85%) | 5 (Level 5: growth control rate is above 85%) | 5 (Level 5: growth control rate is above 85%) | 5 (Level 5: growth control rate is above 85%) | – | 5 (Level 5: growth control rate is above 85%) | – | 5 (Level 5: growth control rate is above 85%) | – | 5 (Level 5: growth control rate is above 85%) | 5 (Level 5: growth control rate is above 85%) | 5 (Level 5: growth control rate is above 85%) | 5 (Level 5: growth control rate is above 85%) | 5 (Level 5: growth control rate is above 85%) | 5 (Level 5: growth control rate is above 85%) | 0 (Level 0: growth control rate is less than 5%) | 0 (Level 0: growth control rate is less than 5%) | 0 (Level 0: growth control rate is less than 5%) | 0 (Level 0: growth control rate is less than 5%) | 5 (Level 5: growth control rate is above 85%) | activity level (weed control effect) Monochoria vaginalis [19]: 5 (Level 5: growth control rate is above 85%); activity level (weed control effect) Scirpus juncoides [20]: 5 (Level 5: growth control rate is above 85%); plant damage level Rice [21]: 0 (Level 0: growth control rate is less than 5%) |
| C#CCOC(=O)[C@@H](C)O/N=C/c1cc(-n2c(=O)cc(C(F)(F)F)n(C)c2=O)c(F)cc1Cl [212(R)] | 5 (Level 5: growth control rate is above 85%) | 5 (Level 5: growth control rate is above 85%) | 5 (Level 5: growth control rate is above 85%) | 5 (Level 5: growth control rate is above 85%) | – | 5 (Level 5: growth control rate is above 85%) | – | 5 (Level 5: growth control rate is above 85%) | – | 5 (Level 5: growth control rate is above 85%) | 5 (Level 5: growth control rate is above 85%) | 5 (Level 5: growth control rate is above 85%) | 5 (Level 5: growth control rate is above 85%) | 5 (Level 5: growth control rate is above 85%) | 5 (Level 5: growth control rate is above 85%) | 0 (Level 0: growth control rate is less than 5%) | 0 (Level 0: growth control rate is less than 5%) | 0 (Level 0: growth control rate is less than 5%) | 0 (Level 0: growth control rate is less than 5%) | 5 (Level 5: growth control rate is above 85%) | activity level (weed control effect) Monochoria vaginalis [19]: 5 (Level 5: growth control rate is above 85%); activity level (weed control effect) Scirpus juncoides [20]: 5 (Level 5: growth control rate is above 85%); plant damage level Rice [21]: 0 (Level 0: growth control rate is less than 5%) |
| COC(=O)C(C)O/N=C/c1cc(-n2c(=O)n(C)c(=S)n(C)c2=O)c(F)cc1Cl (centres unmarked) [Compound 1] | 5 (Level 5: growth control rate is above 85%) | 5 (Level 5: growth control rate is above 85%) | 5 (Level 5: growth control rate is above 85%) | 5 (Level 5: growth control rate is above 85%) | 3 (Level 3: growth control rate is greater than or equal to 40% and less than 60%) | 5 (Level 5: growth control rate is above 85%) | 3 (Level 3: growth control rate is greater than or equal to 40% and less than 60%) | 5 (Level 5: growth control rate is above 85%) | 3 (Level 3: growth control rate is greater than or equal to 40% and less than 60%) | – | – | – | – | – | – | – | – | – | – | – | – |
